Where two headings read alike, the source gives them in different places.
Target: T1, CFTR (Homo sapiens, UniProt P13569, DEL508-508)
T1 construct: endogenous in cells; host or cells: primary human bronchial epithelial cells from CF subjects (F508del/MF-HBE), differentiated at air-liquid interface
Test: HBE assay: Ussing chamber assay of CFTR-mediated short-circuit currents
Format: cell-based
Conditions: for EC50: read-out: HBE EC50; for activation at 10 µM: read-out: HBE Activity at 10 μM (%)
Summary of the method: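 CFTR-mediated Isc (μA/cm²) equals the peak response to apical 20 μM forskolin minus the residual after a 20 μM each BPO/GlyH-101/CFTR inhibitor 172 cocktail, recorded in Ussing chambers at Vhold 0 mV, 37 °C, pH 7.4, with 30 μM apical amiloride. Cells were F508del/MF HBE cultures preincubated 18-24 h with corrector (concentration range or 10 μM) plus 1 μM ivacaftor in 20% human serum.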

[1] = Table 12, read-out: HBE Max Activity (%)
[2] = Table 11, read-out: HBE Max Activity (%)
[3] = Table 10, read-out: HBE Max activity (%)

T1 sequence (P13569 with tags, fused parts or gaps DEL508-508): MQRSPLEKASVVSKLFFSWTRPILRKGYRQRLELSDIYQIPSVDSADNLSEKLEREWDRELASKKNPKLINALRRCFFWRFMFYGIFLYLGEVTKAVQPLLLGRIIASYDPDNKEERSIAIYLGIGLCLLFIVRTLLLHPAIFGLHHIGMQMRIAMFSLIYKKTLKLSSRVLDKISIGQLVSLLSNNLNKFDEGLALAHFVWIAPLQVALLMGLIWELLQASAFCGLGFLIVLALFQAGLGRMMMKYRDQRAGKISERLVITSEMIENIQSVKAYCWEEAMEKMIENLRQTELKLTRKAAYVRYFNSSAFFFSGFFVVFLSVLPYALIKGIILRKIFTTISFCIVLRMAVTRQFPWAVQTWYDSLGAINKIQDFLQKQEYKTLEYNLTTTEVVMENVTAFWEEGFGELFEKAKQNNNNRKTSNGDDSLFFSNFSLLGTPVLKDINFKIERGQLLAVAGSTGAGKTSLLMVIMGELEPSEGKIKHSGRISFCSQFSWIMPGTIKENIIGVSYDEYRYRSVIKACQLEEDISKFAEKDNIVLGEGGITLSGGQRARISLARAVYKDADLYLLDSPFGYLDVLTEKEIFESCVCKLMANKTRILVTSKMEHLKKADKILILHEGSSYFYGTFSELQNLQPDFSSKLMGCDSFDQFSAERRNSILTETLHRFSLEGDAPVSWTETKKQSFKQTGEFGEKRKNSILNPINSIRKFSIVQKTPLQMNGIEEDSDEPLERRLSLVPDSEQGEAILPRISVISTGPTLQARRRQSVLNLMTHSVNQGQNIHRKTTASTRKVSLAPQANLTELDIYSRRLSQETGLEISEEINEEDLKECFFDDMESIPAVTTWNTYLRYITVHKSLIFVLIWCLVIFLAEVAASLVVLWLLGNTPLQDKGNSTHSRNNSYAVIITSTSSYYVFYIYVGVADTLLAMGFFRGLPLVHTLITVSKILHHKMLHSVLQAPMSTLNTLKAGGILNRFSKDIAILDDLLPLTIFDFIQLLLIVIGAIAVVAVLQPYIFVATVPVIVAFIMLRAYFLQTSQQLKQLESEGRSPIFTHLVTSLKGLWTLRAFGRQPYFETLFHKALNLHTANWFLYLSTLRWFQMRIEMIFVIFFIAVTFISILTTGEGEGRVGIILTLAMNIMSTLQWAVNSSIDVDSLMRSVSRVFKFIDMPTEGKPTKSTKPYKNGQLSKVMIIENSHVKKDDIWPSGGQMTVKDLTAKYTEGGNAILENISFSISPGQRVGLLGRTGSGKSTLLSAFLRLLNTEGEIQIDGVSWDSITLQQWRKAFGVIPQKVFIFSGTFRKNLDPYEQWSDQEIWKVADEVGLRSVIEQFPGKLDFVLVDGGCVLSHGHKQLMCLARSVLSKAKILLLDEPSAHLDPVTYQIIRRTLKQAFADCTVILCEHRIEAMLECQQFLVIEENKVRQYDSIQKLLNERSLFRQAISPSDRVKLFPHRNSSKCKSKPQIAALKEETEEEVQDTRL

Work on `Cc1cccc(C)c1-c1cc2nc(n1)NS(=O)(=O)c1cccc(c1)C(=O)N(Cc1cccc(C(C)C(C)C)n1)[C@H](CC(C)(C)C)CO2` (stereo partly shown) [Compound 871] yielded an EC50 (Table 12) of under 1 µM and an Emax [1] of over 60%.
`Cc1cccc(C)c1-c1cc2nc(n1)NS(=O)(=O)c1cccc(c1)C(=O)N(Cc1cccc(N3CCOC(C)(C)C3)n1)[C@H](CC(C)(C)C)CO2` [Compound 872] was tested, and the EC50 (Table 12) was under 1 µM and the Emax [1] was over 60%.
With `Cc1cccc(C)c1-c1cc2nc(n1)NS(=O)(=O)c1cccc(c1)C(=O)N(Cc1ncc(N3CC4CCC3C4)cn1)[C@H](CC(C)(C)C)CO2` (stereo partly shown) [Compound 874] the EC50 (Table 12) was under 1 µM and the Emax [1] was over 60%.
Compound `Cc1cccc(C)c1-c1cc2nc(n1)NS(=O)(=O)c1cccc(c1)C(=O)N(Cc1ncc(N3CCC(C(C)(C)C)C3)cn1)[C@H](CC(C)(C)C)CO2` (stereo partly shown) [Compound 875] has an EC50 (Table 12) of under 1 µM and an Emax [1] of over 60%.
`COC1CN(c2cccc(CN3C(=O)c4cccc(c4)S(=O)(=O)Nc4nc(cc(-c5c(C)cccc5C)n4)OC[C@H]3CC(C)(C)C)n2)C(C)(C)C1` (stereo partly shown) [Compound 876] showed an EC50 (Table 12) of under 1 µM and an Emax [1] of over 60%.
In the case of `Cc1cccc(C)c1-c1cc2nc(n1)NS(=O)(=O)c1cccc(c1)C(=O)N(Cc1cccc(N3CC(C(C)(C)C)CC3(C)C)n1)[C@H](CC(C)(C)C)CO2` (stereo partly shown) [Compound 877], the activation at 10 µM (Table 12) is reported as over 600%.
Compound `Cc1cccc(C)c1-c1cc2nc(n1)NS(=O)(=O)c1cccc(c1)C(=O)N(Cc1cccc3ccnn13)[C@H](CC(C)(C)C)CO2` [Compound 878] has an activation at 10 µM (Table 12) of over 600%.
In the case of `Cc1cccc(C)c1-c1cc2nc(n1)NS(=O)(=O)c1cccc(c1)C(=O)N(Cc1cnc3ccccn13)[C@H](CC(C)(C)C)CO2` [Compound 879], the activation at 10 µM (Table 12) is reported as over 600%.
In the case of `Cc1cccc(C)c1-c1cc2nc(n1)NS(=O)(=O)c1cccc(c1)C(=O)N(Cc1ccc(OC(C)C)nc1)[C@H](CC(C)(C)C)CO2` [Compound 880], the activation at 10 µM (Table 12) is reported as over 600%.
`Cc1cccc(C)c1-c1cc2nc(n1)NS(=O)(=O)c1cccc(c1)C(=O)N(Cc1cncc(N(C)C(C)C)n1)[C@H](CC(C)(C)C)CO2` [Compound 881] gave an EC50 (Table 12) of under 1 µM and an Emax [1] of over 60%.
`Cc1cccc(C)c1-c1cc2nc(n1)NS(=O)(=O)c1cccc(c1)C(=O)N(Cc1ccc(C3CCCCC3)nc1)[C@H](CC(C)(C)C)CO2` [Compound 882] gave an activation at 10 µM (Table 12) of over 600%.
For `Cc1cccc(C)c1-c1cc2nc(n1)NS(=O)(=O)c1cccc(c1)C(=O)N(Cc1ccc(N3CCC(C)(C)C3)nc1)[C@H](CC(C)(C)C)CO2` [Compound 883], the EC50 (Table 12) was under 1 µM and the Emax [1] was over 60%.
In the case of `COc1cncc(CN2C(=O)c3cccc(c3)S(=O)(=O)Nc3nc(cc(-c4c(C)cccc4C)n3)OC[C@H]2CC(C)(C)C)n1` [Compound 884], the EC50 (Table 11) is reported as under 1 µM and the Emax [2] is reported as over 60%.
In the case of `Cc1cccc(C)c1-c1cc2nc(n1)NS(=O)(=O)c1cccc(c1)C(=O)N(Cc1cncc(N(C)C)n1)[C@H](CC(C)(C)C)CO2` [Compound 885], the EC50 (Table 11) is reported as under 1 µM and the Emax [2] is reported as over 60%.
`Cc1cccc(C)c1-c1cc2nc(n1)NS(=O)(=O)c1cccc(c1)C(=O)N(Cc1cc(C(C)(C)C)ccn1)[C@H](CC(C)(C)C)CO2` [Compound 886] gave an EC50 (Table 11) of under 1 µM and an Emax [2] of over 60%.
`COCCN(C)c1ccnc(CN2C(=O)c3cccc(c3)S(=O)(=O)Nc3nc(cc(-c4c(C)cccc4C)n3)OC[C@H]2CC(C)(C)C)c1` [Compound 887] showed an EC50 (Table 11) of under 1 µM and an Emax [2] of over 60%.
In the case of `Cc1cccc(C)c1-c1cc2nc(n1)NS(=O)(=O)c1cccc(c1)C(=O)N(Cc1cc(N3CCCCC3)ccn1)[C@H](CC(C)(C)C)CO2` [Compound 888], the EC50 (Table 11) is reported as under 1 µM and the Emax [2] is reported as over 60%.
`Cc1cccc(C)c1-c1cc2nc(n1)NS(=O)(=O)c1cccc(c1)C(=O)N(Cc1cnc(C3CCOCC3)cn1)[C@H](CC(C)(C)C)CO2` [Compound 889] was tested, and the EC50 (Table 11) was 1 to 3 µM and the Emax [2] was over 60%.
In the case of `Cc1cccc(C)c1-c1cc2nc(n1)NS(=O)(=O)c1cccc(c1)C(=O)N(Cc1cnc(C3CCCC3)cn1)[C@H](CC(C)(C)C)CO2` [Compound 890], the EC50 (Table 11) is reported as 3 to 30 µM and the Emax [2] is reported as over 60%.
`Cc1cccc(C)c1-c1cc2nc(n1)NS(=O)(=O)c1cccc(c1)C(=O)N(Cc1cnc(C3CCCCC3)cn1)[C@H](CC(C)(C)C)CO2` [Compound 891] showed an EC50 (Table 11) of 1 to 3 µM and an Emax [2] of over 60%.
In the case of `Cc1cccc(C)c1-c1cc2nc(n1)NS(=O)(=O)c1cccc(c1)C(=O)N(Cc1cncc(C(C)C)n1)[C@H](CC(C)(C)C)CO2` [Compound 892], the EC50 (Table 11) is reported as under 1 µM and the Emax [2] is reported as over 60%.
With `Cc1cccc(C)c1-c1cc2nc(n1)NS(=O)(=O)c1cccc(c1)C(=O)N(Cc1cnc(C(C)C)cn1)[C@H](CC(C)(C)C)CO2` [Compound 893] the EC50 (Table 11) was under 1 µM and the Emax [2] was over 60%.
Work on `Cc1cccc(C)c1-c1cc2nc(n1)NS(=O)(=O)c1cccc(c1)C(=O)N(Cc1cncc(OC(C)C)n1)[C@H](CC(C)(C)C)CO2` [Compound 894] yielded an EC50 (Table 11) of under 1 µM and an Emax [2] of over 60%.
In the case of `COCCN(C)c1cncc(CN2C(=O)c3cccc(c3)S(=O)(=O)Nc3nc(cc(-c4c(C)cccc4C)n3)OC[C@H]2CC(C)(C)C)n1` [Compound 895], the EC50 (Table 11) is reported as under 1 µM and the Emax [2] is reported as over 60%.
In the case of `Cc1cccc(C)c1-c1cc2nc(n1)NS(=O)(=O)c1cccc(c1)C(=O)N(Cc1cncc(N3CCOCC3)n1)[C@H](CC(C)(C)C)CO2` [Compound 896], the EC50 (Table 11) is reported as under 1 µM and the Emax [2] is reported as over 60%.
`Cc1cccc(C)c1-c1cc2nc(n1)NS(=O)(=O)c1cccc(c1)C(=O)N(Cc1cnc(OC(C)C)cn1)[C@H](CC(C)(C)C)CO2` [Compound 897] gave an EC50 (Table 11) of under 1 µM and an Emax [2] of over 60%.
`Cc1cccc(C)c1-c1cc2nc(n1)NS(=O)(=O)c1cccc(c1)C(=O)N(Cc1cnc(N(C)CC(C)(C)C)cn1)[C@H](CC(C)(C)C)CO2` [Compound 899] gave an EC50 (Table 11) of under 1 µM and an Emax [2] of over 60%.
`COCCN(C)c1cnc(CN2C(=O)c3cccc(c3)S(=O)(=O)Nc3nc(cc(-c4c(C)cccc4C)n3)OC[C@H]2CC(C)(C)C)cn1` [Compound 900] showed an EC50 (Table 11) of 1 to 3 µM and an Emax [2] of over 60%.
For `Cc1cccc(C)c1-c1cc2nc(n1)NS(=O)(=O)c1cccc(c1)C(=O)N(CC1CCOC1)[C@H](CC(C)(C)C)CO2` (stereo partly shown) [Compound 901], the activation at 10 µM (Table 11) was over 60%.
Work on `Cc1ccc(C)c(-c2cc3nc(n2)NS(=O)(=O)c2cccc(c2)C(=O)N(Cc2ccc(N4CCCCC4)cn2)[C@H](CC(C)(C)C)CO3)c1C` [Compound 902] yielded an Emax [2] of under 30%.
In the case of `COC1CCC(CN2C(=O)c3cccc(c3)S(=O)(=O)Nc3nc(cc(-c4c(C)cccc4C)n3)OC[C@H]2CC(C)(C)C)CC1` (stereo partly shown) [Compound 903], the EC50 (Table 11) is reported as under 1 µM and the Emax [2] is reported as over 60%.
With `Cc1cccc(C)c1-c1cc2nc(n1)NS(=O)(=O)c1cccc(c1)C(=O)N(CC1CCC(O)(C(F)(F)F)CC1)[C@H](CC(C)(C)C)CO2` (stereo partly shown) [Compound 904] the EC50 (Table 10) was under 1 µM.
With `Cc1cccc(C)c1-c1cc2nc(n1)NS(=O)(=O)c1cccc(c1)C(=O)N(CC1CCC(O)(C(F)(F)F)CC1)[C@H](CC(C)(C)C)CO2` (stereo partly shown) [Compound 905] the EC50 (Table 10) was under 1 µM and the Emax [3] was over 60%.
With `Cc1cccc(C)c1-c1cc2nc(n1)NS(=O)(=O)c1cc(n(C)n1)C(=O)N(Cc1ccc(N3CCOCC3)cc1)[C@H](CC(C)(C)C)CO2` [Compound 906] the EC50 (Table 10) was under 1 µM and the Emax [3] was over 60%.
`COC[C@]1(O)CC[C@@H](CN2C(=O)c3cccc(c3)S(=O)(=O)Nc3nc(cc(-c4c(C)cccc4C)n3)OC[C@H]2CC(C)(C)C)CC1` [Compound 907] was tested, and the EC50 (Table 10) was under 1 µM and the Emax [3] was over 60%.
`Cc1cccc(C)c1-c1cc2nc(n1)NS(=O)(=O)c1cccc(c1)C(=O)N(CC1CCC(O)(CO)CC1)[C@H](CC(C)(C)C)CO2` (stereo partly shown) [Compound 908] was tested, and the EC50 (Table 10) was under 1 µM and the Emax [3] was over 60%.
